Measurements reported in US20130143869A1, “USE OF A CATIONIC AMPHIPHILIC DRUG FOR THE PREPARATION OF A FORMULATION FOR THE REDUCTION OF SUBCUTANEOUS ADIPOSE TISSUE” (Merz Pharma GmbH & CO. KGaA, priority 2010, published 2013).

Key:
[1] = Precipitation of test item in cytotoxicity assay media; type: physicochemical; conditions: above 500 μM
Experimental: (§1) The test items 1 to 8 were prepared according to Table 1 to yield respective stock solutions. Said stock solutions were further diluted in assay media to obtain the double concentrated working solutions, which were subsequently diluted 1:2 in the final assay. […] Deoxycholate Na was selected as “reference compound”.

human adipocyte cells [2] = test: Cytotoxicity assay: metabolic activity (resazurin conversion) of human adipocytes; type: cell-based; conditions: read-out: IC50 (metabolic activity after 48 hrs); Example 1, 48 hrs exposure, resazurin
Experimental: (§2) HWP were obtained in passage two and differentiated in vitro to mature adipocytes. Briefly, cells were initially cultured in preadipocyte growth medium at 37° C. and 5% CO2 to 70-80% confluency. Then, cells were seeded at 40,000 cells/ml into 96-well flat bottom tissue culture plates and incubated overnight to allow attachment. Differentiation was initiated by changing the medium to preadipopcyte differentiation medium for an additional 72 hrs. After differentiation was induced, the medium was replaced by adipocyte nutrition medium that was refreshed every 2-3 days over a period of 14 days until termination of differentiation. Differentiation status was checked via nile red staining of control cells.
as §1
(§3) For the cytotoxicity assays in this study pre-adipocytes were seeded at 40,000 cells/ml into a 96-well microtiter flat bottom plate. The test items were prepared in separate plates starting with the double concentrated maximal test concentration followed by a 1:2 serial dilution (Chloroquine and Fluoxetine 1:3) and then added to the cells. The test items were tested at 6 replicates/concentration. Each plate included negative controls (media plus solvent, 6 replicates), a drug interference control (all concentrations, duplicates), a background control (14 replicates), a positive (=cytotoxic) control (6 replicates doxorubicin, 1 μM final) and a positive control for maximal LDH-release (2 replicates, 2% Triton-x 100 final).
(§4) Relative cell viability was determined after 48 hrs exposure based on metabolic activity (i.e. resazurin conversion). Using a Victor^3 1420 Multilabel Counter, the resazurin conversion to the fluorescent resorufin by metabolically active cells was recorded at 560Ex/590Em. Membrane integrity was measured after 6 hrs and 48 hrs and the enzymatic activity of released LDH in the cell supernatant after 30 min of incubation at 492 nmabsorption/690 nmreference by a spectrophotometer. The volume withdrawn from the cultures for the LDH-assay was not replaced to keep cells in a less disturbed environment. The assay was conducted in a multiplexed format.
In order to derive meaningful IC50 values from the primary data, the entire biological window of activity ranging from 0% to 100% viability should be covered and the resolution has to be sufficient. To improve data quality, the serial dilution factor used in previous experiments was reduced to a 1:2 and 1:3 dilution. […] IC50 (half maximal inhibitory concentration, calculated via Sigma Plot 10) values were determined for each test substance 1 to 8.
(§5) The effects on cytotoxicity in human adipocyte cells of a further 9 compounds were tested. The experimental set-up was identical to the one in example 1.

human adipocyte cells [3] = test: Membrane integrity: LDH release from human adipocytes (LDH assay); type: cell-based; conditions: Example 1, 48 hrs, relative to Triton-x 100 maximal LDH release
Experimental: as §2, §3, §4
For the dose-response relationship, absolute absorption (OD treated wells−background) was plotted against the test item concentrations representing LDH leakage from the cells. For a better estimation of the test items' potential influencing the membrane integrity, relative, maximal LDH release in percent (see Table 2) was also calculated according to the following formula: […]
as §5

Human white adipocytes = test: Apoptosis/necrosis detection, Annexin V-FITC/PI flow cytometry; type: cell-based
From the text: The apoptotic program is characterized by certain morphologic features. Loss of plasma membrane asymmetry is a well established indicator for apoptotic cells. In apoptotic cells, the membrane phospholipid phosphatidylserine (PS) is translocated from the inner to the outer leaflet of the plasma membrane, thereby exposing PS to the external environment. In general, this PS translocation is preceded by caspase activation. Annexin V labelled with FITC is a Ca^2+ dependent phospholipid-binding protein with high affinity for PS and binds to cells with externalized PS. Cells stained with Annexin V*FITC are therefore considered in an early apoptotic stage.
Staining with Annexin V-FITC is typically used in conjunction with a vital dye such as propidium iodide (PI) to allow discrimination between early apoptotic and necrotic cells. Necrotic dying cells are PI positive only. Cells that are viable are Annexin V and PI negative; cells that entered apoptosis are Annexin V positive and PI negative and cells that are in post apoptotic and/or necrotic phase are both Annexin V and PI positive.
Human white adipocytes that had been differentiated in vitro from pre-adipocytes as describe above were used. Measurements were performed after 5 hrs to catch early apoptotic/necrotic events and after 24 hrs and 48 hrs for later stages. Naringenin at 500 μM (reported to induce apoptosis in adipocytes) was used as positive control and media plus solvent was used as negative control. Each compound was tested in three different concentrations. […] Two more concentrations, one below and one above the IC50 were added.
Flow cytometry was performed with a dual laser FC500. After completion of the staining procedure, tubes were grouped into a FC500 carousel for semi-automated data acquisition. Cells were first acquired in “Setup” mode to tune the parameters FS, SS, FL1 and FL2. After completion of the setup, baseline compensation was switched on and cells were acquired. Cells were acquired without life-gate but using FS threshold to exclude debris. All cells were acquired using individually corrected settings.
After completion of data acquisition, analysis was done using the CXP software. If necessary, software-based post acquisition compensation was performed to fine-correct for fluorescence overlap not adjusted for during the acquisition phase. Quadrant markers were set based on the negative controls.

CC(=O)N1CCN(c2ccc(OCC3COC(Cn4ccnc4)(c4ccc(Cl)cc4Cl)O3)cc2)CC1 (centres unmarked) [Test substance 5, Ketoconazole]
precipitation in assay media [1]: generation of insoluble precipitates at higher concentrations | IC50 (human adipocyte cells [2]): 78 µM | Rel. max. LDH release [%] 48 hrs (human adipocyte cells [3]): 92.2% | primary mode of cell death (Human white adipocytes): Apoptosis can be considered primary mode of cell death at the lower concentration range with necrosis taking place later at higher concentrations | Early Apoptosis [A-V*/PI*] (Human white adipocytes; 60 μM, 5 hrs): 26.5 | Necrosis/ Late Apoptosis [A-V*/PI*] (Human white adipocytes; 60 μM, 5 hrs): 1.4 | Normal [A-V*/PI] (Human white adipocytes; 60 μM, 5 hrs): 72.1 | Early Apoptosis [A-V*/PI*] (Human white adipocytes; 60 μM, 24 hrs): 19.5 | Necrosis/ Late Apoptosis [A-V*/PI*] (Human white adipocytes; 60 μM, 24 hrs): 2.6 | Normal [A-V*/PI] (Human white adipocytes; 60 μM, 24 hrs): 77.9 | Early Apoptosis [A-V*/PI*] (Human white adipocytes; 60 μM, 48 hrs): 9.1 | Necrosis/ Late Apoptosis [A-V*/PI*] (Human white adipocytes; 60 μM, 48 hrs): 3.8 | Normal [A-V*/PI] (Human white adipocytes; 60 μM, 48 hrs): 87.1 | Early Apoptosis [A-V*/PI*] (Human white adipocytes; 80 μM, 5 hrs): 34 | Necrosis/ Late Apoptosis [A-V*/PI*] (Human white adipocytes; 80 μM, 5 hrs): 2.2 | Normal [A-V*/PI] (Human white adipocytes; 80 μM, 5 hrs): 63.8 | Early Apoptosis [A-V*/PI*] (Human white adipocytes; 80 μM, 24 hrs): 22.7 | Necrosis/ Late Apoptosis [A-V*/PI*] (Human white adipocytes; 80 μM, 24 hrs): 17.9 | Normal [A-V*/PI] (Human white adipocytes; 80 μM, 24 hrs): 59.4 | Early Apoptosis [A-V*/PI*] (Human white adipocytes; 80 μM, 48 hrs): 18.5 | Necrosis/ Late Apoptosis [A-V*/PI*] (Human white adipocytes; 80 μM, 48 hrs): 44.9 | Normal [A-V*/PI] (Human white adipocytes; 80 μM, 48 hrs): 36.6 | Early Apoptosis [A-V*/PI*] (Human white adipocytes; 100 μM, 5 hrs): 23.6 | Necrosis/ Late Apoptosis [A-V*/PI*] (Human white adipocytes; 100 μM, 5 hrs): 3.1 | Normal [A-V*/PI] (Human white adipocytes; 100 μM, 5 hrs): 73.3 | Early Apoptosis [A-V*/PI*] (Human white adipocytes; 100 μM, 24 hrs): 16.9 | Necrosis/ Late Apoptosis [A-V*/PI*] (Human white adipocytes; 100 μM, 24 hrs): 82.6 | Normal [A-V*/PI] (Human white adipocytes; 100 μM, 24 hrs): 0.5 | Early Apoptosis [A-V*/PI*] (Human white adipocytes; 100 μM, 48 hrs): 36.9 | Necrosis/ Late Apoptosis [A-V*/PI*] (Human white adipocytes; 100 μM, 48 hrs): 52.5 | Normal [A-V*/PI] (Human white adipocytes; 100 μM, 48 hrs): 0.5 | apoptosis/necrosis induction in human adipocytes (in words) (Human white adipocytes; 5, 24, 48 hrs, concentrations as in Table 4): caused apoptosis after 5 hrs at 60, 80, and 100 μM increasing over time
